Data published in ChEMBL document CHEMBL4229400, “Covalent inhibitors of nicotinamide N-methyltransferase (NNMT) provide evidence for target engagement challenges in situ” (Bioorg Med Chem Lett, 2018).
Activity calls are given as the source filed them. The calls are words filed in the database; no cut-off is given here.

What was measured:
[1] = target: T1, Nicotinamide N-methyltransferase (Homo sapiens) (UniProt P40261); test: Binding affinity to NNMT C165 residue in human 786-O cell lysate at 5 uM incubated for 4 hrs followed by cell lysis by IA-alkyne probe based isoTOP-ABPP analysis
T1 sequence (whole entry): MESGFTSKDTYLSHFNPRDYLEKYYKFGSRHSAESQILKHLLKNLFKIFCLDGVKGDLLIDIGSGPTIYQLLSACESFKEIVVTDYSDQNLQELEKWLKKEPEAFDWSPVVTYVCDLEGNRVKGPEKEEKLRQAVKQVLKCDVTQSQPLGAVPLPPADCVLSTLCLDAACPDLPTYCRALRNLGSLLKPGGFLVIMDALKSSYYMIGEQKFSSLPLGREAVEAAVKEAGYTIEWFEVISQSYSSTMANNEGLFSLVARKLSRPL

[2] = target: T1, Nicotinamide N-methyltransferase (Homo sapiens); test: Inhibition of NNMT in human 786-O cell lysate using d4-nicotinamide as substrate preincubated for 1 hr followed by substrate and SAM addition measured after 15 to 30 mins by LC-MS analysis
[3] = target: T2, Heme oxygenase 2 (Homo sapiens) (UniProt P30519); test: Binding affinity to HMOX2 cysteine residue in human 786-O cell lysate at 5 uM incubated for 1 hr followed by cell lysis by IA-alkyne probe based isoTOP-ABPP analysis
T2 sequence (whole entry): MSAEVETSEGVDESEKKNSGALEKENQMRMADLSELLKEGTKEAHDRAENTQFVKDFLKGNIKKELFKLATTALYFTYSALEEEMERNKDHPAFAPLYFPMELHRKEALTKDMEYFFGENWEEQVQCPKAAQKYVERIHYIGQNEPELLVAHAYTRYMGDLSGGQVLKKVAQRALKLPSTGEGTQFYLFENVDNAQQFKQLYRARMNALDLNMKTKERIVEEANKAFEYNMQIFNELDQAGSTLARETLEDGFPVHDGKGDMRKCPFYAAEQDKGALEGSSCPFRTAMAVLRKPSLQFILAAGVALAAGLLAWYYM

[4] = target: T1, Nicotinamide N-methyltransferase (Homo sapiens); test: Binding affinity to NNMT C165 residue in human 786-O cell soluble proteomic lysate at 1 to 5 uM incubated for 1 hr followed by cell lysis by IA-alkyne probe based isoTOP-ABPP analysis
[5] = target: T3, Nicotinamide N-methyltransferase (Homo sapiens, UniProt P40261); test: Inhibition of NNMT in human 786-O cell lysate using d4-nicotinamide as substrate pretreated for 1 hr at 3 mins post 160 uM SAM addition followed by substrate addition measured after 15 to 30 mins by LC-MS analysis
T3 sequence (P40261 whole entry): T1 sequence (whole entry)

[6] = target: Receptor expression-enhancing protein 5 (Homo sapiens) (UniProt Q00765); test: Binding affinity to REEP5 cysteine residue in human 786-O cell soluble proteomic lysate at 5 uM incubated for 1 hr followed by cell lysis by IA-alkyne probe based isoTOP-ABPP analysis
Sequence of Receptor expression-enhancing protein 5 (Homo sapiens) (Q00765 whole entry): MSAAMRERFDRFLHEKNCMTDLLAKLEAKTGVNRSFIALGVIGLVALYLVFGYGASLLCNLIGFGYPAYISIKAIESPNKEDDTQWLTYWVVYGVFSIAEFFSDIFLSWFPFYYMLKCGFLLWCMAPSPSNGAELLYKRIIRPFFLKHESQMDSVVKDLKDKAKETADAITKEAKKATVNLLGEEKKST

[7] = target: T1, Nicotinamide N-methyltransferase (Homo sapiens); test: Inhibition of SAH-rhodamine binding to NNMT in human 786-O cell soluble proteomic lysate preincubated for 1 hr followed by SAH-rhodamine addition measured after 5 mins by Gel-based ABPP analysis
[8] = target: T4, Thioredoxin domain-containing protein 17 (Homo sapiens) (UniProt Q9BRA2); test: Binding affinity to TXNDC17 cysteine residue in human 786-O cell soluble proteomic lysate at 5 uM incubated for 1 hr followed by cell lysis by IA-alkyne probe based isoTOP-ABPP analysis
T4 sequence (whole entry): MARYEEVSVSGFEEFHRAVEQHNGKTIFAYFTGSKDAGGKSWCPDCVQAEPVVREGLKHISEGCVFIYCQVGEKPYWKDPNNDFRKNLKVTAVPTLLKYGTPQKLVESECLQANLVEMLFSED

[9] = target: T1, Nicotinamide N-methyltransferase (Homo sapiens); test: Binding affinity to NNMT C165 residue in human 786-O cell soluble proteomic lysate at 5 uM incubated for 1 hr followed by cell lysis by IA-alkyne probe based isoTOP-ABPP analysis relative to control
[10] = target: T5, Sterol carrier protein 2 (Homo sapiens) (UniProt P22307); test: Binding affinity to SCP2 cysteine residue in human 786-O cell soluble proteomic lysate at 5 uM incubated for 1 hr followed by cell lysis by IA-alkyne probe based isoTOP-ABPP analysis
T5 sequence (whole entry): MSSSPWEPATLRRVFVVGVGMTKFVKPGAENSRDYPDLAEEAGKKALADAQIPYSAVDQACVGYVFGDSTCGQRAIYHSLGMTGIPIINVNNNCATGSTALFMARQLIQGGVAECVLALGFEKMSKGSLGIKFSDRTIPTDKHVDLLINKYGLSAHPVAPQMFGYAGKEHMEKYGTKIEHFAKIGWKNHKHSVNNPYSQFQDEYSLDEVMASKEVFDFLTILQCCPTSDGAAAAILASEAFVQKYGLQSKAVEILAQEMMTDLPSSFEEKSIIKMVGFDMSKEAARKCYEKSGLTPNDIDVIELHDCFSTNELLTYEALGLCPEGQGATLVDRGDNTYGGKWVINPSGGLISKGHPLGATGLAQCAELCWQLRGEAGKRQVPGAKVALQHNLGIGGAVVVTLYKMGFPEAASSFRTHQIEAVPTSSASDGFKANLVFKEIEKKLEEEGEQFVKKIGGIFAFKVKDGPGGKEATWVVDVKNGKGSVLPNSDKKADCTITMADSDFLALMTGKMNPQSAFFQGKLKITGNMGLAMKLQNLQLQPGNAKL

[11] = target: T6, 5'-nucleotidase domain-containing protein 2 (Homo sapiens) (UniProt Q9H857); test: Binding affinity to NT5DC2 cysteine residue in human 786-O cell soluble proteomic lysate at 5 uM incubated for 1 hr followed by cell lysis by IA-alkyne probe based isoTOP-ABPP analysis
T6 sequence (whole entry): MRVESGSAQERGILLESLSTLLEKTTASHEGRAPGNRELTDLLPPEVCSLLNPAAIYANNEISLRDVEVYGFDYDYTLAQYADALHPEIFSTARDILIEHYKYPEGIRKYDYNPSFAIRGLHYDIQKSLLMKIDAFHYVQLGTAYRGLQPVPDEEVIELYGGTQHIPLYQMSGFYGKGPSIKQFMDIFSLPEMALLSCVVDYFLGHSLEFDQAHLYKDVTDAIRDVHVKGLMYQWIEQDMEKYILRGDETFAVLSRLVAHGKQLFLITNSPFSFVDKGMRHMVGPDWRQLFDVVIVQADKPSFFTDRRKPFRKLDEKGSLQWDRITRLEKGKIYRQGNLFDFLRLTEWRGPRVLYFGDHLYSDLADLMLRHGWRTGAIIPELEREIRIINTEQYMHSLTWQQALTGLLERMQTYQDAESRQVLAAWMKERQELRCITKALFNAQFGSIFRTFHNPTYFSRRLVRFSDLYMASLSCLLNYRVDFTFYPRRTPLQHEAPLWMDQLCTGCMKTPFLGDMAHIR

Structure (SMILES)	Activity [1]	inhibition [2]	Activity [3]	Activity [4]	IC50 [5] [µM]	Activity [6]	inhibition [7]	Activity [8]	Activity [9]	Activity [10]	Activity [11]
CC(C)CCN(C(=O)CCl)c1cc(C(=O)NCc2cccc([N+](=O)[O-])c2)cc(C(F)(F)F)c1	inactive	Dose-dependent effect	Active	Active	> 100	Active	Dose-dependent effect	Active			
O=C(Nc1cccnc1Cl)c1cc(N(CCCc2ccccc2)C(=O)CCl)cc(C(F)(F)F)c1									inactive	Active	Active
